In PubChem BioAssay AID256 (DTP/NCI, 2004):
Toxic doses and inconclusive results are not listed. The calls were made as follows: active = survival T/C of 150% or more; inactive = T/C below 125% in these data. Non-standard residues stand in square brackets, D forms with d. Residues, ends and D or L forms follow the SMILES beside them. ξ: configuration not given here. *: point of attachment. ONp = O=[N+]([O-])c1ccc(O*)cc1; ξS = NC(CO)C(=O)O

System: CD2F1 mice, L1210 leukemia ip, survival T/C
Experiment: NCI In Vivo Anticancer Drug Screen. Data for tumor model L1210 Leukemia (intraperitoneal) in CD2F1 (CDF1) mice
Conditions: higher = longer survival
Outline: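 In this screen, transplantable tumors were grown in mice given either the compound or its vehicle. Results were expressed as the treated measurement relative to the control measurement.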

[1] = endpoint: mean survival time, dose: 25.0 mg/kg/injection, schedule: Q01DX009 (ip), vehicle: saline with Tween-80
[2] = endpoint: mean survival time, dose: 100.0 mg/kg/injection, schedule: Q01DX009 (ip), vehicle: saline with Tween-80
[3] = endpoint: mean survival time, dose: 200.0 mg/kg/injection, schedule: Q01DX009 (ip), vehicle: saline with Tween-80
[4] = endpoint: mean survival time, dose: 400.0 mg/kg/injection, schedule: Q01DX009 (ip), vehicle: saline with Tween-80
[5] = endpoint: mean survival time, dose: 100.0 mg/kg/injection, schedule: Q04DX003 (ip), vehicle: saline with Tween-80
[6] = endpoint: mean survival time, dose: 100.0 mg/kg/injection, schedule: Q04DX003 (ip), vehicle: saline
[7] = endpoint: mean survival time, dose: 200.0 mg/kg/injection, schedule: Q01DX009 (ip), vehicle: saline
[8] = endpoint: mean survival time, dose: 200.0 mg/kg/injection, schedule: Q04DX003 (ip), vehicle: saline with Tween-80
[9] = endpoint: mean survival time, dose: 12.5 mg/kg/injection, schedule: Q01DX009 (ip), vehicle: Klucel (hydroxypropylcellulose) (HPC)
[10] = endpoint: mean survival time, dose: 75.0 mg/kg/injection, schedule: Q01DX001 (ip), vehicle: saline
[11] = endpoint: mean survival time, dose: 150.0 mg/kg/injection, schedule: Q01DX001 (ip), vehicle: saline
[12] = endpoint: mean survival time, dose: 300.0 mg/kg/injection, schedule: Q01DX001 (ip), vehicle: saline
[13] = endpoint: mean survival time, dose: 400.0 mg/kg/injection, schedule: Q04DX003 (ip), vehicle: saline with Tween-80
[14] = endpoint: mean survival time, dose: 100.0 mg/kg/injection, schedule: Q01DX009 (ip), vehicle: saline
[15] = endpoint: mean survival time, dose: 100.0 mg/kg/injection, schedule: Q04DX002 (ip), vehicle: Klucel (hydroxypropylcellulose) (HPC)

Measured: T/C

CCCCOC(=O)c1ccc(NC(=O)Nc2ccccc2)cc1
inactive: [1] 92 % of control | endpoint: mean survival time, dose: 50.0 mg/kg/injection, schedule: Q01DX009 (ip), vehicle: saline with Tween-80 97 % of control | [2] 93 % of control

Cc1cccnc1N.[Cl-].[Cl-].[Cl-].[Cl-].[Pt+2]
inactive: endpoint: mean survival time, dose: 21.88 mg/kg/injection, schedule: Q04DX003 (ip), vehicle: saline with Tween-80 104 % of control | endpoint: mean survival time, dose: 43.75 mg/kg/injection, schedule: Q04DX003 (ip), vehicle: saline with Tween-80 110 % of control

CCOC(=O)C1=C(C)N(Cc2ccccc2)C(C)=C(C(=O)OCC)C1(C)C
inactive: [2] 107 % of control | [3] 109 % of control | [4] 107 % of control

COC(=O)C1(N)CCCC1
inactive: endpoint: mean survival time, dose: 25.0 mg/kg/injection, schedule: Q04DX003 (ip), vehicle: saline 101 % of control | endpoint: mean survival time, dose: 50.0 mg/kg/injection, schedule: Q04DX003 (ip), vehicle: saline 100 % of control | [5] 105 % of control | [6] 113 % of control | [7] 121 % of control | [8] 122 % of control

CC(=N\[O-])/C(C)=N/O.CC(=N\[O-])/C(C)=N/O.CC(=O)[O-].CC(=O)[O-].O.[Rh+2].[Rh+2]
inactive: endpoint: mean survival time, dose: 0.78 mg/kg/injection, schedule: Q01DX009 (ip), vehicle: saline 88 % of control | endpoint: mean survival time, dose: 3.13 mg/kg/injection, schedule: Q01DX009 (ip), vehicle: saline 96 % of control | endpoint: mean survival time, dose: 6.25 mg/kg/injection, schedule: Q01DX009 (ip), vehicle: saline 91 % of control | [9] 95 % of control | endpoint: mean survival time, dose: 12.5 mg/kg/injection, schedule: Q01DX009 (ip), vehicle: saline 93 % of control

CCCCCCCCOc1ccc(Cl)cc1
inactive: endpoint: mean survival time, dose: 100.0 mg/kg/injection, schedule: Q04DX002 (ip), vehicle: saline with Tween-80 90 % of control | endpoint: mean survival time, dose: 200.0 mg/kg/injection, schedule: Q04DX002 (ip), vehicle: saline with Tween-80 90 % of control | endpoint: mean survival time, dose: 400.0 mg/kg/injection, schedule: Q04DX002 (ip), vehicle: saline with Tween-80 93 % of control

O=c1[nH]cnc2c1CN(c1ccc(Cl)cc1)C2
inactive: [10] 101 % of control | [11] 90 % of control | [12] 93 % of control

COc1ccc(C2(C)N=NC(=C(c3ccccc3)c3ccccc3)O2)cc1 (stereo not given)
inactive: [2] 97 % of control | [5] 91 % of control | [3] 86 % of control | [8] 91 % of control | [4] 86 % of control | [13] 93 % of control

C1CCC(NC2=NCCO2)CC1
inactive: [5] 90 % of control

Cc1c(NCO)c(=O)n(-c2ccccc2)n1C
inactive: [14] 94 % of control | [7] 89 % of control | endpoint: mean survival time, dose: 400.0 mg/kg/injection, schedule: Q01DX009 (ip), vehicle: saline 105 % of control

Nc1nc(N)c2nc(-c3ccccc3Cl)c(-c3ccccc3Cl)nc2n1
inactive: endpoint: mean survival time, dose: 25.0 mg/kg/injection, schedule: Q04DX002 (ip), vehicle: Klucel (hydroxypropylcellulose) (HPC) 91 % of control | endpoint: mean survival time, dose: 50.0 mg/kg/injection, schedule: Q04DX002 (ip), vehicle: Klucel (hydroxypropylcellulose) (HPC) 98 % of control | [15] 95 % of control

CC(C)CC(=O)NC(C(=O)NC(C(=O)NC(CC(C)C)C(O)CC(=O)NC(C)C(=O)NC(CC(C)C)C(O)CC(=O)O)C(C)C)C(C)C (stereo not given)
inactive: endpoint: mean survival time, dose: 3.12 mg/kg/injection, schedule: Q01DX009 (ip), vehicle: Klucel (hydroxypropylcellulose) (HPC) 96 % of control | endpoint: mean survival time, dose: 6.25 mg/kg/injection, schedule: Q01DX009 (ip), vehicle: Klucel (hydroxypropylcellulose) (HPC) 100 % of control | [9] 96 % of control | endpoint: mean survival time, dose: 25.0 mg/kg/injection, schedule: Q01DX009 (ip), vehicle: Klucel (hydroxypropylcellulose) (HPC) 100 % of control | endpoint: mean survival time, dose: 50.0 mg/kg/injection, schedule: Q01DX009 (ip), vehicle: Klucel (hydroxypropylcellulose) (HPC) 94 % of control | endpoint: mean survival time, dose: 100.0 mg/kg/injection, schedule: Q01DX009 (ip), vehicle: Klucel (hydroxypropylcellulose) (HPC) 97 % of control

NC(CO)C(=O)NCC(=O)Oc1ccc([N+](=O)[O-])cc1 (stereo not given) (H-[ξS]-Gly-ONp)
inactive: [10] 100 % of control | [11] 102 % of control | [12] 96 % of control

O=[N+]([O-])/C(=C/c1ccccc1)c1ccccc1
inactive: endpoint: mean survival time, dose: 6.25 mg/kg/injection, schedule: Q01DX009 (ip), vehicle: saline with Tween-80 107 % of control | endpoint: mean survival time, dose: 6.25 mg/kg/injection, schedule: Q04DX003 (ip), vehicle: saline with Tween-80 101 % of control | endpoint: mean survival time, dose: 12.5 mg/kg/injection, schedule: Q01DX009 (ip), vehicle: saline with Tween-80 105 % of control | endpoint: mean survival time, dose: 12.5 mg/kg/injection, schedule: Q04DX003 (ip), vehicle: saline with Tween-80 97 % of control | [1] 103 % of control | endpoint: mean survival time, dose: 25.0 mg/kg/injection, schedule: Q04DX003 (ip), vehicle: saline with Tween-80 101 % of control

COc1c2c(cc3c1C(O)N(C)CC3)OCO2 (stereo not given)
inactive: [10] 100 % of control | [11] 110 % of control

CC(C)c1nn[nH]n1
inactive: endpoint: median survival time, dose: 50.0 mg/kg/injection, schedule: Q01DX009 (ip), vehicle: saline + alcohol 93 % of control | endpoint: median survival time, dose: 100.0 mg/kg/injection, schedule: Q01DX009 (ip), vehicle: saline + alcohol 91 % of control | endpoint: median survival time, dose: 200.0 mg/kg/injection, schedule: Q01DX009 (ip), vehicle: saline + alcohol 100 % of control | endpoint: median survival time, dose: 400.0 mg/kg/injection, schedule: Q01DX009 (ip), vehicle: saline + alcohol 93 % of control

OCc1ccc2c(n1)COC(c1ccccc1)O2 (stereo not given)
inactive: [15] 102 % of control | endpoint: mean survival time, dose: 200.0 mg/kg/injection, schedule: Q04DX002 (ip), vehicle: Klucel (hydroxypropylcellulose) (HPC) 94 % of control | endpoint: mean survival time, dose: 400.0 mg/kg/injection, schedule: Q04DX002 (ip), vehicle: Klucel (hydroxypropylcellulose) (HPC) 94 % of control

Nc1nc(=O)n2ccn(C3OC(CO)C(O)C3O)c2n1 (stereo not given)
inactive: endpoint: mean survival time, dose: 12.5 mg/kg/injection, schedule: Q01DX005 (ip), vehicle: distilled water + Tween-80 103 % of control | endpoint: mean survival time, dose: 25.0 mg/kg/injection, schedule: Q01DX005 (ip), vehicle: distilled water + Tween-80 100 % of control | endpoint: mean survival time, dose: 50.0 mg/kg/injection, schedule: Q01DX005 (ip), vehicle: distilled water + Tween-80 100 % of control | endpoint: mean survival time, dose: 100.0 mg/kg/injection, schedule: Q01DX005 (ip), vehicle: distilled water + Tween-80 100 % of control | endpoint: mean survival time, dose: 200.0 mg/kg/injection, schedule: Q01DX005 (ip), vehicle: distilled water + Tween-80 103 % of control

CC#CCO
inactive: [2] 104 % of control | [3] 98 % of control

CC(C)(C)C(Br)C(=O)O (stereo not given)
inactive: endpoint: mean survival time, dose: 75.0 mg/kg/injection, schedule: Q01DX001 (ip), vehicle: saline with Tween-80 97 % of control | endpoint: mean survival time, dose: 150.0 mg/kg/injection, schedule: Q01DX001 (ip), vehicle: saline with Tween-80 97 % of control

COc1cc2c(cc1OC)C(Cc1ccc3cc(OC)c(OC)cc3c1)=NCC2
inactive: [2] 93 % of control | [5] 87 % of control | [3] 101 % of control | [8] 89 % of control | [4] 110 % of control | [13] 101 % of control

C[C@]12C[C@H](O)[C@H]3[C@@H](CCC4=CC(=O)CC[C@@]43C)[C@@H]1CC[C@@H]2C(=O)CO
inactive: endpoint: median survival time, dose: 25.0 mg/kg/injection, schedule: Q01DX009 (sc), vehicle: steriod suspending solution 100 % of control | endpoint: median survival time, dose: 50.0 mg/kg/injection, schedule: Q01DX009 (sc), vehicle: steriod suspending solution 100 % of control | endpoint: median survival time, dose: 100.0 mg/kg/injection, schedule: Q01DX009 (sc), vehicle: steriod suspending solution 100 % of control | endpoint: median survival time, dose: 200.0 mg/kg/injection, schedule: Q01DX009 (sc), vehicle: steriod suspending solution 100 % of control

CCN(CC)C(=O)c1ccc[n+](CC(=O)Nc2ccccc2)c1
inactive: endpoint: mean survival time, dose: 25.0 mg/kg/injection, schedule: Q01DX009 (ip), vehicle: saline 108 % of control | endpoint: mean survival time, dose: 50.0 mg/kg/injection, schedule: Q01DX009 (ip), vehicle: saline 105 % of control | [14] 97 % of control | [6] 104 % of control
